Consider 62 compounds from a melting point compilation (Tetko et al.; mined from patent text by program, amines drawn as free bases though some values may be those of a salt).

As to `C=Cc1ccc(S(=O)(=O)Nc2ncnc(Cl)c2Cc2c(OC)cccc2OC)cc1`, the melting point lay within 197 to 198 °C.

Regarding `CC(n1cnc2cc(I)ccc2c1=O)C(O)(Cn1cncn1)c1ccc(F)cc1F` (configuration not stated), the melting point lay in the range of 155 to 156 °C. Compound `O=C(NCc1ccccc1)Oc1ccc2c(ccn2Cc2ccncc2)c1` registered a melting point of 112 to 114 °C. Turning to `COC(=O)c1cc(C(=O)c2c(C)c(OC)c3c(OCc4ccccc4)cccn23)ccc1N`, the melting point is 174 °C. The compound `CCOC(=O)c1cnn(-c2ccc(Br)cc2)c1C#N` showed a melting point of 104 to 105 °C. For `O=C(O)Cc1cccc(Oc2ccccc2Cl)c1O`, the melting point lay within 103 to 105 °C.

`CC(C)(C)c1ccccc1NC(=O)C(=O)O` yielded a melting point of 111 to 113 °C. Compound `Cc1cn(C(C(=O)N(C)C)C(C)C)nc1-c1ccccc1` (configuration not stated) had a melting point of 66.5 to 68.5 °C. On to `CCCCCCCc1cnc(-c2ccc(OC(=O)c3cc(N)c(O[C@H](C)CCCCCC)cc3[N+](=O)[O-])cc2)nc1`, for which the melting point amounted to 105 °C. As for `O=C(O)c1cc(Br)cnc1Cl`, the figure is 174 to 177 °C; as for `CCCCCCCCCCCCCCCCCC[C@@H]1OC(=O)C(O)=C1O`, 110 to 112 °C. In turn, `Cc1nccn1C(=O)NC1CCCCC1` came in with a melting point of 100 to 102 °C. `CCOC(=O)CCNC=C(C(=O)OCC)C(=O)c1cc(F)c(Cl)c([N+](=O)[O-])c1Cl` displayed a melting point of 107 to 108 °C.

As for `N#CN(Cc1ccccc1)C(=O)CCCC(=O)N(C#N)Cc1ccccc1`, the melting point fell in the range of 97.5 to 100 °C. For the compound `COc1cc(C(=O)N2Cc3cccn3Cc3ccccc32)ccc1N`, the melting point was 184 to 185 °C. Compound `CN1CCC(c2cc3ccc(Cl)cc3c(=O)[nH]2)CC1` came in with a melting point of 253 to 255 °C.

With `CCCCCCCCCCCCCCCCCCOC[C@@H](O)COC(=O)CCCCl`, the melting point amounted to 48 °C.

Regarding `O=C(O)CCNC(=O)c1ccccc1NC(=O)c1ccccc1O`, the melting point lay within 200 to 202 °C. As for `O=CNc1ccc(C2=NNC(=O)C3CC23)cc1` (configuration not stated), the figure is 239 to 240 °C; as for `O=C1NCCN(c2ccc(Cc3ccc(Cl)cc3)c(Cl)c2)N1`, 157 to 158 °C.

In turn, `COc1cc2c(c(Cl)c1Cl)C(=O)C(CCCl)C2` (configuration not stated) came in with a melting point of 103 to 105 °C. The result for `O=C(C=Cc1ccc(Cl)cc1)N1CCN(c2ccc(OC[C@H]3CO[C@](Cn4cncn4)(c4ccc(Cl)cc4Cl)O3)cc2)CC1` (relative stereo) reads 185 °C. The result for `COCO[C@@H](CCCCC1CCCCC1)CCc1ccc(C(C)(C)C)c(NC(=O)CC2c3ccccc3Oc3ccccc32)c1` reads 71 to 73 °C; that for `Fc1ccc2c(c1)C(OCc1c(F)cccc1F)C(Cn1ccnc1)S2` (configuration not stated), 167 to 168 °C; that for `Cc1nc2cc(NC(=O)c3cc4cccnc4n3Cc3ccncc3)ccc2n1C`, 236 to 246 °C. In turn, `COC(=O)C1=C(C)NC(N)=C(C#N)C1c1ccc(C(F)(F)F)cc1` (configuration not stated) returned a melting point of 210 to 214 °C.

Regarding `COc1cc(SCc2ccccc2)c([N+](=O)[O-])cc1OC`, the melting point was in the range of 174 to 176 °C. `COc1ccc2cc(-c3ncno3)ccc2n1` registered a melting point of 150 to 152 °C. As for `CC1(C)C(=O)Nc2ccc(-c3cccc(C#N)c3F)cc21`, the figure is 231 to 232 °C; as for `COC(=O)c1ccc(OCCNC(=O)C2Cc3ccccc3N2S(=O)(=O)c2ccc(-c3ccc(F)cc3Cl)cc2)nc1` (configuration not stated), 78 to 85 °C; as for `CCCN(c1ccncc1)N1C(=O)Cc2ccccc21`, 140 to 143 °C. `C=CCOc1ccccc1NS(C)(=O)=O` registered a melting point of 90 °C. For `CCN1C(=O)C(C)(C)N=C(c2ccccc2F)c2cc([N+](=O)[O-])cc(Cl)c21`, the melting point stood at 156 °C.

Consider `CCOCCCOc1ccc(-c2ccc3c(c2)C=C(C(=O)Nc2ccc(CN(C)C4CCOCC4)cc2)CCS3(=O)=O)cc1`, for which the melting point is 214 to 215 °C.

Take `CCCCCCC(C)OS(=O)(=O)NC(=O)Nc1c(C(C)C)cccc1C(C)C` (configuration not stated): the melting point was 109 to 113 °C.

`c1ccc(COCCNc2ccc(Nc3ncnc4cc(-c5ccccc5)sc34)cc2)cc1` displayed a melting point of 201 to 203 °C. The compound `COC(=O)c1ccc(N=C2NCCN2)c(C)c1` gave a melting point of 193 to 194 °C. Take `COc1ccc2c(c1)C(N1CCCC1=O)NN=C2Cc1c(Cl)cncc1Cl` (configuration not stated): the melting point was in the range of 223 to 225 °C. As for `COc1ccc2c(c1)C(C#N)c1ccccc1CO2` (configuration not stated), the figure is 120 to 122 °C; as for `CC(C)(O)c1cc(-c2ccc(Cl)cc2)nc2ccnn12`, 113 to 115 °C; as for `Cc1cc2nc3ccccc3sc-2c(Br)c1=O`, 190 °C. As for `CN(Cc1sc2c(=O)c(C(=O)NCc3ccc(Cl)cc3)cn(C)c2c1COCC[Si](C)(C)C)CC(O)c1ccc(C#N)s1` (configuration not stated), the melting point is 152 to 154 °C. As for `O=C1NCCc2ccc(OCCCN3CCCN(c4cccc(Cl)c4Cl)CC3)cc21`, the figure is 116 to 117 °C; as for `CCCC(=O)NCCc1c[nH]c2cc(Cl)c(OC)cc12`, 98 to 98.5 °C; as for `O=Cc1cc2ccccc2[nH]1`, 134 to 137 °C. As for `CCOc1ccc(C(=O)NCc2ccc3c(c2)C(=O)N(C2(C)CCC(=O)NC2=O)C3=O)nn1` (configuration not stated), the figure is 126 to 128 °C; as for `O=C(Nc1ccccc1S(=O)(=O)c1ccccc1)N[C@@H](Cc1ccc(NCc2c(Cl)cccc2Cl)cc1)C(=O)O`, 116 °C; as for `CCn1cc(C(=O)O)c(=O)c2ccc(I)cc21`, 237 to 238 °C. As for `CC(C)n1c(NC(=O)c2ccccc2)nc2ccccc2c1=O`, the melting point was 156 to 158 °C.

`CCOCc1nc2c(N)nc(C)c(C)c2n1CCCNC(C)=O` yielded a melting point of 162 °C. For the compound `CCCC(=O)Nc1c(C)c(C)c2c(c1C)C(c1ccc(C(C)C)cc1)CO2` (configuration not stated), the melting point lay within 177 to 178 °C. As to `COC(=O)c1cc(NC(=O)c2ccnc(C)c2)c2cc(Cc3ccc(F)cc3)cnc2c1O`, the melting point lay in the range of 229 to 230 °C.

In turn, `COc1cc(OCCN2CCCC2)cc2nc(-c3cc(C)nc(C)c3)[nH]c(=O)c12` returned a melting point of 227 to 229 °C.

On to `CC(C)(C)c1ccc(N2C(=O)CCC2=O)c([N+](=O)[O-])c1`, for which the melting point lay in the range of 135 to 138 °C.

For the compound `COc1cc(OC)nc(OC(C(=O)O)C(C)(Oc2ccccc2)c2ccccc2)n1` (configuration not stated), the melting point was in the range of 50 to 55 °C. The compound `COc1cccc(OC)c1-c1nc2c(N[C@H]3[C@@H](C(N)=O)[C@@H]4C=C[C@H]3C4)c(Br)cnc2[nH]1` returned a melting point of 194 to 197 °C. Take `CC(=O)ON=C1Cc2ccccc2N(C(N)=O)c2ccccc21`: the melting point lay in the range of 176 to 177 °C.

Compound `C#CCN(C(=O)CCl)c1c(C)nc(N(C)C)nc1C` came in with a melting point of 108 to 110 °C. The result for `CCCC1(C(=O)O)c2ccccc2-c2ccccc21` reads 120 to 122 °C; that for `CN(Cc1sc2c(=O)c(C(=O)NCc3ccc(Cl)cc3)cn(C)c2c1COCC[Si](C)(C)C)CC(O)c1cnccn1` (configuration not stated), 155 to 156 °C. On to `CC(=O)NCc1cccc(Nc2nccc(-c3sc(N(C)c4cc(Cl)cc(Cl)c4)nc3C)n2)c1`, for which the melting point was 213 to 214 °C. As for `Nc1ccccc1CCCC(C(=O)O)N1C(=O)c2ccccc2C1=O` (configuration not stated), the figure is 258 to 260 °C.
